Measurements: US8153160B2 (Bayer Pharma Aktiengesellschaft, priority 2005, dated 2012)

Experiments:
[1] = cited from earlier work
[2] = In vitro release, USP release method with apparatus 2 (paddle); type: physicochemical; conditions: 100 rpm, 900 ml phosphate buffer pH 6.8 + 1.0% sodium lauryl sulfate, JP sinker
Procedure: The in vitro release investigations described below were carried out by the USP release method with apparatus 2 (paddle). […] Also added to the buffer solution to set up sink conditions is 1% sodium lauryl sulfate. The tablet formulations are preferably released from a sinker as specified in the Japanese Pharmacopoeia.

SMILES: CCOc1nc2cccc(C(=O)OC(C)OC(=O)OC3CCCCC3)c2n1Cc1ccc(-c2ccccc2-c2nnn[nH]2)cc1 (stereo not shown) [candesartan cilexetil]
- water solubility, classified in words [1]: virtually insoluble in water

SMILES: CCCc1nc2c(C)cc(-c3nc4ccccc4n3C)cc2n1Cc1ccc(-c2ccccc2C(=O)O)cc1 [Telmisartan]
- Release [%] at 2 h ([2]; from nifedipine/telmisartan osmotic two-chamber tablet, heading prints Exemplary Formulation 2.1, time 2 h): 5%
- Release [%] at 5 h ([2]; from nifedipine/telmisartan osmotic two-chamber tablet, heading prints Exemplary Formulation 2.1, time 5 h): 22%
- Release [%] at 10 h ([2]; from nifedipine/telmisartan osmotic two-chamber tablet, heading prints Exemplary Formulation 2.1, time 10 h): 51%
- Release [%] at 15 h ([2]; from nifedipine/telmisartan osmotic two-chamber tablet, heading prints Exemplary Formulation 2.1, time 15 h): 80%
- Release [%] at 24 h ([2]; from nifedipine/telmisartan osmotic two-chamber tablet, heading prints Exemplary Formulation 2.1, time 24 h): 90%

SMILES: CCCCc1nc(Cl)c(CO)n1Cc1ccc(-c2ccccc2-c2nn[nH]n2)cc1 [Losartan-K, losartan potassium]
- Release [%] at 2 h ([2]; from tablet Exemplary formulation 2.1 (30 mg nifedipine, osmotic two-chamber system), time 2 h): 2%
- Release [%] at 4 h ([2]; from tablet Exemplary formulation 2.1 (30 mg nifedipine, osmotic two-chamber system), time 4 h): 19%
- Release [%] at 8 h ([2]; from tablet Exemplary formulation 2.1 (30 mg nifedipine, osmotic two-chamber system), time 8 h): 48%
- Release [%] at 12 h ([2]; from tablet Exemplary formulation 2.1 (30 mg nifedipine, osmotic two-chamber system), time 12 h): 77%
- Release [%] at 24 h ([2]; from tablet Exemplary formulation 2.1 (30 mg nifedipine, osmotic two-chamber system), time 24 h): 96%
- water solubility, classified in words [1]: freely soluble

SMILES: COC(=O)C1=C(C)NC(C)=C(C(=O)OCC(C)C)C1c1ccccc1[N+](=O)[O-] (stereo not shown) [nisoldipine]
- water solubility [1]: about 2 mg/l
